Measured values from patent US12097174B2, “Methods and agents that enhance myogenic progenitor cell engraftment” (President and Fellows of Harvard College, priority 2018, dated 2024).

What was measured:
mouse satellite cells = assay: Mouse satellite cell transplantation into pre-injured TA muscle, engraftment by bioluminescence imaging (BLI); type: in vivo; conditions: for BLI radiance (mean±SEM): 10 μM NFA (n=13) or 5 μM LPA (n=17) prior to transplant, vehicle 8,214,000±1,462,346; for engraftment efficiency of mouse satellite cells: 4 h at 37° C. with 10 μM NFA or 5 μM LPA, 5000 cells per recipient
Protocol: Specifically, BLI radiance (mean±SEM) for muscle precursors treated with 10 μM NFA or 5 μM LPA prior to transplant were 27,236,923±6,849,754 p/s (n=13) and 25,637,059±4,410,195 p/s (n=17), respectively, in comparison to 8,214,000±1,462,346 p/s (n=15) vehicle-treated cells (1-way ANOVA between vehicle-treated group and either NFA or LPA treated group, p≤0.01) (FIGS. 8A-8C).
To this end, mouse satellite cells were again sorted from double-transgenic (luc+GFP+) mice and exposed them to NFA, LPA, or vehicle (DMSO) under the optimal dose conditions established using the fish model (see above; 4 h. treatment at 37° C. with 10 μM of NFA or 5 μM of LPA), prior to transplant. Compound-treated cells were then recovered and, after washing out the media containing the compounds (NFA, LPA or DMSO), counted and transplanted at 5000 cells per recipient into the pre-injured TA muscles of non-transgenic FVB hosts. The kinetics of muscle engraftment were subsequently assessed by weekly BLI imaging of transplanted limbs. Similar to the fish experiments, both NFA and LPA enhanced the engraftment efficiency of mouse satellite cells in these in vivo transplantation assays (FIGS. 14C and 14D), indicating conserved effects of these pro-myogenic compounds on mammalian muscle precursor cells.
Mouse satellite cells were isolated as previously described (Maesner et al., 2016; Sherwood et al., 2004; Xu et al., 2013). 25 μl (0.03 mg/ml) of cardiotoxin (CDTX) (Latoxan) was injected 24 h prior to transplantation into the TA muscle of recipient mice (FVB/NJ). Luc-GFP tagged satellite cells were isolated and plated on a collagen/laminin-coated plate and treated with NFA (10 μM), LPA (5 μM) or DMSO, as the vehicle control, in culture media for 4 hours at 37° C. The culture media contained 78% F10 (GIBCO), 20% horse serum (Atlanta Biologics), 1% penicillin-streptomycin (Invitrogen), 1% GlutaMAX (Invitrogen), and 5 ng/ml bFGF (Sigma). After 4 hours, cells were washed with DPBS, harvested, and counted, followed by transplantation of 5000 satellite cells intramuscularly into the CDTX pre-injured TA of FVB recipients.
Mice were anesthetized with isoflurane and weighed. 150 mg/kg of luciferin (Goldbio) was administered by IP injection. BLI was acquired using IVIS Spectrum every 2 minutes, at F-stop=1.0 at 5 min after luciferin injection. The acquired images were analyzed and the highest captured radiance in the region of interest (ROI) was measured.

C2C12 cells = assay: Calcium imaging in Fura-2, AM treated C2C12 cells (single-cell imaging); type: cell-based, mouse; conditions: 10 μM NFA, 5 μM LPA; 10-20 seconds after loading
Protocol: Fura-2, AM treated C2C12 cells were exposed to 10 μM NFA, 5 μM LPA or DMSO as vehicle control to visualize the effect on intracellular calcium ion concentration using single-cell imaging. […] Scale bar 50 μm.
The ZeMPCs and C2C12 cells were incubated with Fura-2, AM (Thermo Fisher Sci F1225), a cell permeant fluorescent calcium ion indicator, for 45 minutes at 28.5° C. and 37° C., respectively, followed by imaging with Celldiscoverer7 Microscope (Zeiss). 20 seconds after imaging initiation the treatment was added to the cells and continued for a total of 2-3 minutes.

Compound | BLI radiance (mean±SEM) (mouse satellite cells) | engraftment efficiency of mouse satellite cells (mouse satellite cells) | intracellular calcium ion concentration (C2C12 cells)
lysophosphatidic acid [LPA] | 25,637,059±4,410,195 p/s | enhanced | increase
O=C(O)c1cccnc1Nc1cccc(C(F)(F)F)c1 [NFA, niflumic acid] | 27,236,923±6,849,754 p/s | enhanced | increase
